The text below walks through data of patent US20200255492A1, “LEPTIN PEPTIDES AND THEIR USE FOR TREATING NEUROLOGICAL DISORDERS” (UNIVERSITY OF DUNDEE, priority 2017, published 2020).

Assay [1] has as its system juvenile hippocampal slices. As to the kind of experiment: Subthreshold LFS: Aβ1-42-induced LTD. Conditions: for basal synaptic transmission: 10 nM; for synaptic transmission after LFS (magnitude of Aβ1-42-induced LTD): 10 nM plus Aβ1-42. Type of assay: cell-based, Sprague Dawley rats. Here is the method: Parasagittal hippocampal slices (300 μm) were prepared from either P13-21 or 12-24-week-old male Sprague Dawley rats as previously (Moult et al. 2010). Brains were rapidly removed and placed in ice-cold artificial CSF (aCSF; bubbled with 95% O2 and 5% CO2) containing the following (in mm): 124 NaCl, 3 KCl, 26 NaHCO3, 1.25 NaH2PO4, 2 CaCl2, 1 MgSO4, and 10 d-glucose. Once prepared, parasagittal slices were allowed to recover at room temperature in oxygenated aCSF for 1 h before use. Slices were transferred to a submerged chamber maintained at room temperature and perfused with artificial cerebrospinal fluid at 2 ml min^−1. Standard extracellular recordings were used to monitor evoked field excitatory postsynaptic potentials (fEPSP) from stratum radiatum. The Schaffer collateral-commissural pathway was stimulated (constant voltage; 0.1 ms) at 0.033 Hz, using a stimulus intensity that evoked a peak amplitude ˜50% of the maximum. Synaptic potentials were low pass filtered at 2 kHz and digitally sampled at 10 kHz. The fEPSP slope was measured and expressed relative to baseline. Synaptic records are the average of 4 consecutive responses and stimulus artefacts are blanked for clarity. Recordings were made using an Axopatch 200B amplifier and analyzed using LTP v2.4 software. In synaptic plasticity studies, the degree of potentiation was calculated 30-35 min after HFS and expressed as a percentage of baseline±standard error of mean (SEM).
It is known that oligomeric Aβ promotes the induction of LTD (Shankar et al. 2008) and that exposure to a low concentration of leptin (10 nM) prevents facilitation of hippocampal LTD by Aβ1-42 (Doherty et al. 2013). Thus we assessed if either of the leptin fragments mirror leptin action. Initially we verified that leptin prevented Aβ1-42-induced LTD. […] Furthermore, leptin (10 nM) reduced the magnitude of Aβ1-42-induced LTD such that LFS depressed synaptic transmission to 101±5.3% of baseline in leptin-treated slices (n=4; P>0.05; FIG. 4B). To establish if the leptin fragments mirrored leptin action the effects of leptin (116-130) or leptin (22-56) were also examined.

Assay [2] relates to tau in hippocampal neurons. The assay can be described thus: Immunocytochemistry of endogenous tau and tau/PSD-95 co-localization. Type of assay: cell-based, Sprague-Dawley rats. Conditions: for % co-localization of tau and PSD-95 in Aβ1-42-treated neurons / relative tau intensity in Aβ1-42-treated neurons: Aβ1-42 1 μM plus leptin/fragment 10 nM or SB216763 100 nM. Here is the method:
(§1) Hippocampal cultures were prepared as previously (Moult et al, 2010). Neonatal Sprague-Dawley rats (1-3 d old) were […] killed by cervical dislocation in accordance with the UK Animals (Scientific Procedures Act) 1986 legislation. Hippocampi were removed, and after washing in HEPES-buffered saline comprising (mM) 135 NaCl; 5 KCl; 1 CaCl2; 1 MgCl2; 10 HEPES; and 25 D-glucose at […], were treated with papain (1.5 mg ml21; Sigma-Aldrich) for 20 min at 37° C. Dissociated cells were plated onto sterile dishes (35 mm diameter; Greiner Bio-One, Kremsmun-ster, Austria) treated with poly-D-lysine (20 μg ml^−1; 1-2 h). Cultures were maintained in serum replacement medium (SR2; Sigma-Aldrich) in a humidified atmosphere of 5% CO2 and […] at 37° C. for up to 2 wk.
Immunocytochemistry was conducted on primary hippocampal cultures (7-14 DIV). Prior to labelling with antibodies, neurons were washed with HBS containing glycine (0.01 mM) and incubated with agents for 1 h at room temperature. Cultures were fixed with 4% paraformaldehyde for 5 min, then permeabilized with 0.1% Triton X-100 for 5 min. To label endogenous tau, neurons were incubated with a rabbit anti-tau (Ab-217; Genscript) primary antibody (1:200 dilution) at room temperature for 30 min, followed by incubation with an Alexa Fluor555 donkey anti-rabbit (1:250, Invitrogen) secondary antibody for an additional 30 min duration. To assess the % co-localisation of tau at synapses, neurons were dual labelled with an antibody against the synaptic marker, PSD-95 (mouse anti-PSD-95; 1:500, Thermo Fisher) followed by application of an Alexa Fluor488 goat anti-mouse secondary antibody (1:500, Invitrogen).
(§2) A Zeiss LSM510 confocal microscope was used for image acquisition and analysis. Images were obtained using a 10-s scan speed in single tracking mode or multi-tracking mode for dual labelling experiments. The intensity of immunostaining was measured off-line using Lasersharp software (Zeiss Lasersharp), whereby analysis lines of 50 μm length were drawn along randomly selected dendritic regions. All data were obtained from at least three different cultures from different animals. Imaging conditions including illumination intensity and photomultiplier gains were kept constant between treatments for each experiment. In addition, data were normalised relative to the mean fluorescence intensity obtained from control neurons. For synaptic co-localisation experiments, tau and PSD-95 positive immunostaining were compared. The number of tau-positive sites that co-localized with PSD-95 positive sites were counted and expressed as a percentage of total positive sites (peaks of intensity).

In assay [3] the test system is p-Tau in hippocampal neurons. The assay can be described thus: Immunocytochemistry of phosphorylated tau and p-tau/PSD-95 co-localization. It counts as cell-based, Sprague-Dawley rats. The conditions noted are these: for % co-localization of p-Tau and PSD-95 in Aβ1-42-treated neurons / p-Tau levels in Aβ1-42-treated neurons: Aβ1-42 1 μM plus leptin 10 nM or leptin(116-130). On the procedure:
as §1
Phosphorylated tau was labelled with primary antibody rabbit anti-tau (Ab-396) polyclonal antibody (1:500, Gen Script) corresponding to phosphorylation site of serine 396 (Y-K-S^P-P-V). To visualise p-tau labelling, neurons were then incubated for 30 min with Alexa fluor555 donkey anti-rabbit IgG secondary antibody (1:250, Thermo Fisher Scientific). For synaptic localisation of p-tau, a secondary primary antibody was then added to compare p-tau localization relative to the synaptic marker, PSD95 (mouse anti-PSD-95, 1:500, Thermo Fisher Scientific) for 30 min. PSD-95 labelling was visualized by incubating with a goat anti-mouse Alexa Fluor […] antibody (1:500; Thermo Fisher Scientific) for 30 min.
as §2

As to “Aβ1-42: amyloid beta 1-42, toxin used in the AD models [reference compound]”, the “synaptic transmission after subthreshold LFS (LTD), Aβ1-42 alone” value in assay [1] (vehicle-treated slices 94±5.6%) was 73±3.8 % of baseline. For the same substance, in assay [2] (1 μM), the “% co-localization of tau and PSD-95, Aβ peptide alone” value is “increases % co-localization between endogenous tau and PSD-95”; the “relative tau intensity at dendrites, Aβ peptide alone” value is recorded as “increased endogenous tau expression compared to control”. For the same substance, in assay [3] (1 μM), the “p-Tau staining, Aβ1-42 alone” value is given as “increases phosphorylation of tau” and the “synaptic levels of p-Tau (p-Tau/PSD-95), Aβ1-42 alone” value is recorded as “synaptic levels of p-Tau are increased”.
For “leptin (22-56): leptin fragment amino acids 22-56 (Bachem), comparison fragment (VPIQKVQDDTKTLIKTIVTRINDISHTQSVSSKQK; UniProt P41159 22-56, looked up, fragment) [reference compound]”, in assay [1], the basal synaptic transmission result is on record as “no significant effect on basal synaptic transmission” and the “synaptic transmission after LFS (magnitude of Aβ1-42-induced LTD)” value (from here on “synaptic transmission after LFS”) is on record as 73±4.0 % of baseline.
For “leptin: the metabolic hormone leptin, whole (full length) leptin molecule; human leptin from Sigma in SH-SY5Y work”, the “synaptic transmission after LFS” value in assay [1] is recorded as 101±5.3 % of baseline. Besides, in assay [2], the “% co-localization of tau and PSD-95 in Aβ1-42-treated neurons” value was “prevented the Aβ1.42-driven movement of tau to synapses”; the “relative tau intensity in Aβ1-42-treated neurons” value is reported as “reducing the dendritic levels of tau to near control levels”. In addition, in assay [3], the “% co-localization of p-Tau and PSD-95 in Aβ1-42-treated neurons” value was “prevents Aβ1-42-driven tau phosphorylation and its targeting to synapses”; the “p-Tau levels in Aβ1-42-treated neurons” value is listed as “prevents Aβ1-42-driven tau phosphorylation”.
Take “SCSLPQTSGLQKPES (listed as Mus musculus) [leptin (116-130)]”: in assay [1], the basal synaptic transmission result is given as “no significant effect on basal synaptic transmission” and the “synaptic transmission after LFS” value was 94±5.2 % of baseline. In assay [2], the “% co-localization of tau and PSD-95 in Aβ1-42-treated neurons” value is reported as “prevented Aβ1-42-driven movement of tau to synapses”; the “relative tau intensity in Aβ1-42-treated neurons” value is “reducing dendritic tau levels”. Further, in assay [3], the “% co-localization of p-Tau and PSD-95 in Aβ1-42-treated neurons” value is “prevents Aβ1-42-dependent phosphorylation of tau and it trafficking to synapses”; the “p-Tau levels in Aβ1-42-treated neurons” value is recorded as “prevents Aβ1-42-dependent phosphorylation of tau”.
